Assays:
[1] = Total weight of exudate (oil) absorbed by filter paper blotter discs and theoretical amount of each ingredient exuded; format: physicochemical
Method: (§1) Exposure Conditions: 37-40 deg. C., Sample filter paper discs in contact with gel specimens of same diameter were stacked in […]. aluminum petri dishes, gel specimen diameter 2.625″×0.125″ thick, filter paper disc diameter 2.625″ with another petri dish and a 1 kg dead weight on top of stack. Pressure calculated at ˜0.407 psi. (2.8 Mpa) constant. Two replicates per test condition. Repeat exposures at 3 hours then repeat three exposures of 18 hours each, changing discs but keeping same gel specimen and same side of each gel specimen in contact with each successive filter paper disc sample.
Data was calculated to determine the total weight of exudate absorbed by each individual sample filter paper blotter disc test specimen. Calculations were then performed based upon the ratios of ingredients in the gel disc formula to determine the theoretical amount of each ingredient that could have been exuded from the oil if the oil contained the same ratio of ingredients as contained in the control oil sample and in the gel.

[2] = Exudation of active agents from gel specimens to filter paper discs, quantified by UV, MS, GC and/or HPLC after extraction; format: physicochemical; settings: for Active Agent Transferred from Gel to Filters: 37° C., 0.40 psi; for Total Active Agent Exuded from Gel: cumulative
Method: Sample filter paper discs were placed in contact with gel specimens of same diameter under constant low pressure (0.40 psi. (2.8 Mpa)) at 37° C. Multiple time-controlled exposures of the filter paper to the gel were preformed in succession to same side of gel. Quantification of active agent transferred to the filter paper discs was determined by UV, MS, GC and or HPLC analysis after extraction of active agent from the filter paper. Exudation rates was expressed as μg/unit time per unit surface area.
This compound was then divided into three aliquots' of approximately 10 grams each and poured into a 2.625″ diameter aluminum petri dish and allowed to cool to create individual gel samle discs. Subsequently, absorbent cellulose filter blotter paper was die cut to enough 2.625″ diameter discs to be employed as a wicking media for repeated exposure in direct contact with the gel compound under specific conditions as follows.
as §1
The filter paper disc specimens aa through kk were then sent to an analytical laboratory for HPLC and GC analysis along with a small sample of each individual raw ingredient so that the HPLC and GC equipment could be calibrated for the protocol being employed by the lab. This calibration allowed for determining the maximum recoverable (measurable) amount of each ingredient that could be measured using these techniques and would later be used to correct the data. The analytical laboratory then detected and measured the amount of each of the added active agents that was flushed out of the filter paper discs using wet chemistry techniques known to those skilled in the art.
The analytical data was interpreted, and the amounts of each ingredient which was exuded into each filter paper blotter disc specimen, and subsequently extracted using wet chemistry, were then entered into a data analysis spreadsheet and adjusted based on the Analytical Recovery Rate to determine actual concentration of each ingredient extracted.

[3] = Gel Specimen Number 1, 1 h filter exposure, time 0-1 h
[4] = Gel Specimen Number 1, 3 h filter exposure, time 1-4 h
[5] = Gel Specimen Number 1, 18 h filter exposure, time 4-22 h
[6] = Gel Specimen Number 1, 18 h filter exposure, time 22-40 h
[7] = Gel Specimen Number 1, 18 h filter exposure, time 40-58 h
[8] = Gel Specimen Number 1, Time 1 h
[9] = Gel Specimen Number 1, Time 4 h
[10] = Gel Specimen Number 1, Time 22 h
[11] = Gel Specimen Number 1, Time 40 h
[12] = Gel Specimen Number 1, Time 58 h
[13] = Gel Specimen Number 2, 1 h filter exposure, time 0-1 h
[14] = Gel Specimen Number 2, 3 h filter exposure, time 1-4 h
[15] = Gel Specimen Number 2, 18 h filter exposure, time 4-22 h
[16] = Gel Specimen Number 2, 18 h filter exposure, time 22-40 h
[17] = Gel Specimen Number 2, 18 h filter exposure, time 40-58 h
[18] = Gel Specimen Number 2, Time 1 h
[19] = Gel Specimen Number 2, Time 4 h
[20] = Gel Specimen Number 2, Time 22 h
[21] = Gel Specimen Number 2, Time 40 h
[22] = Gel Specimen Number 2, Time 58 h
[23] = Specimen aa, Hours 1, Cummulative Hours 1
[24] = Specimen bb, Hours 1, Cummulative Hours 1
[25] = Specimen cc, Hours 3, Cummulative Hours 4
[26] = Specimen dd, Hours 3, Cummulative Hours 4
[27] = Specimen ee, Hours 18, Cummulative Hours 22
[28] = Specimen ff, Hours 18, Cummulative Hours 22
[29] = Specimen gg, Hours 18, Cummulative Hours 40
[30] = Specimen hh, Hours 18, Cummulative Hours 40
[31] = Specimen ii, Hours 18, Cummulative Hours 58
[32] = Specimen kk, Hours 18, Cummulative Hours 58

Compound | Active Agent Transferred from Gel to Filters [2, 3] [μg per filter] | Active Agent Transferred from Gel to Filters [2, 4] [μg per filter] | Active Agent Transferred from Gel to Filters [2, 5] [μg per filter] | Active Agent Transferred from Gel to Filters [2, 6] [μg per filter] | Active Agent Transferred from Gel to Filters [2, 7] [μg per filter] | Total Active Agent Exuded from Gel [2, 8] [µg] | Total Active Agent Exuded from Gel [2, 9] [µg] | Total Active Agent Exuded from Gel [2, 10] [µg] | Total Active Agent Exuded from Gel [2, 11] [µg] | Total Active Agent Exuded from Gel [2, 12] [µg] | Active Agent Transferred from Gel to Filters [2, 13] [μg per filter] | Active Agent Transferred from Gel to Filters [2, 14] [μg per filter] | Active Agent Transferred from Gel to Filters [2, 15] [μg per filter] | Active Agent Transferred from Gel to Filters [2, 16] [μg per filter] | Active Agent Transferred from Gel to Filters [2, 17] [μg per filter] | Total Active Agent Exuded from Gel [2, 18] [µg] | Total Active Agent Exuded from Gel [2, 19] [µg] | Total Active Agent Exuded from Gel [2, 20] [µg] | Total Active Agent Exuded from Gel [2, 21] [µg] | Total Active Agent Exuded from Gel [2, 22] [µg] | also measured
COC(=O)c1ccccc1O [Methyl Salicylate, reference compound] | 1005 | 1694 | 4812 | 5165 | 3882 | 1005 | 2699 | 7511 | 12675 | 16558 | 1753 | 2506 | 4847 | 4271 | 3729 | 1753 | 4259 | 9106 | 13376 | 17106 | Estimated grams of ingredient exuded (theoretical amount from ratios of ingredients in the gel disc formula) ([1]; Sample aa, Test Disc 1, Exposed 1 hours): 0.0022 grams; Estimated grams of ingredient exuded (theoretical amount from ratios of ingredients in the gel disc formula) ([1]; Sample bb, Test Disc 1 Replicate, Exposed 1 hours): 0.0031 grams; Estimated grams of ingredient exuded (theoretical amount from ratios of ingredients in the gel disc formula) ([1]; Sample cc, Test Disc 2, Exposed 3 hours): 0.0024 grams; Estimated grams of ingredient exuded (theoretical amount from ratios of ingredients in the gel disc formula) ([1]; Sample dd, Test Disc 2 Replicate, Exposed 3 hours): 0.0035 grams; Estimated grams of ingredient exuded (theoretical amount from ratios of ingredients in the gel disc formula) ([1]; Sample ee, Test Disc 3, Exposed 18 hours): 0.0062 grams; Estimated grams of ingredient exuded (theoretical amount from ratios of ingredients in the gel disc formula) ([1]; Sample ff, Test Disc 3 Replicate, Exposed 18 hours): 0.0062 grams; Estimated grams of ingredient exuded (theoretical amount from ratios of ingredients in the gel disc formula) ([1]; Sample gg, Test Disc 4, Exposed 18 hours): 0.0064 grams; Estimated grams of ingredient exuded (theoretical amount from ratios of ingredients in the gel disc formula) ([1]; Sample hh, Test Disc 4 Replicate, Exposed 18 hours): 0.0057 grams; Estimated grams of ingredient exuded (theoretical amount from ratios of ingredients in the gel disc formula) ([1]; Sample ii, Test Disc 5, Exposed 18 hours): 0.0051 grams; Estimated grams of ingredient exuded (theoretical amount from ratios of ingredients in the gel disc formula) ([1]; Sample kk, Test Disc 5 Replicate, Exposed 18 hours): 0.0051 grams; Quantitative Analysis - Islechem u-gram extraction [2, 23]: 854 u-gram; Quantitative Analysis - Islechem u-gram extraction [2, 24]: 1490 u-gram; Quantitative Analysis - Islechem u-gram extraction [2, 25]: 1440 u-gram; Quantitative Analysis - Islechem u-gram extraction [2, 26]: 2130 u-gram; Quantitative Analysis - Islechem u-gram extraction [2, 27]: 4090 u-gram; Quantitative Analysis - Islechem u-gram extraction [2, 28]: 4120 u-gram; Quantitative Analysis - Islechem u-gram extraction [2, 29]: 4390 u-gram; Quantitative Analysis - Islechem u-gram extraction [2, 30]: 3630 u-gram; Quantitative Analysis - Islechem u-gram extraction [2, 31]: 3300 u-gram; Quantitative Analysis - Islechem u-gram extraction [2, 32]: 3170 u-gram
O=C(O)c1ccccc1O [Salicylic Acid, reference compound] | 372 | 793 | 4765 | 6600 | 4035 | 372 | 1165 | 5929 | 12529 | 16565 | 705 | 1459 | 5153 | 4976 | 3941 | 705 | 2164 | 7316 | 12293 | 16234 | 
Ceramide III | 18 | 18 | 25 | 29 | 10 | 18 | 35 | 60 | 89 | 99 | 20 | 24 | 22 | 13 | 20 | 20 | 43 | 65 | 78 | 98 | Quantitative Analysis - Islechem u-gram extraction [2, 23]: 17 u-gram; Quantitative Analysis - Islechem u-gram extraction [2, 24]: 19 u-gram; Quantitative Analysis - Islechem u-gram extraction [2, 25]: 17 u-gram; Quantitative Analysis - Islechem u-gram extraction [2, 26]: 23 u-gram; Quantitative Analysis - Islechem u-gram extraction [2, 27]: 24 u-gram; Quantitative Analysis - Islechem u-gram extraction [2, 28]: 21 u-gram; Quantitative Analysis - Islechem u-gram extraction [2, 29]: 28 u-gram; Quantitative Analysis - Islechem u-gram extraction [2, 30]: 13 u-gram; Quantitative Analysis - Islechem u-gram extraction [2, 31]: 9.6 u-gram; Quantitative Analysis - Islechem u-gram extraction [2, 32]: 19 u-gram
